Assay results taken from patent publication US9023889B2, “Use of ascorbic acid derivatives for the functionalization of matrices” (Merck Patent GmbH, priority 2006, dated 2015).

Columns and labels:
chicken skin = assay: Evidence of bonding to chicken skin; conditions: 2% in dimethylisosorbide, 2.66 μl/cm^2, exposure 16 hours, isopropanol extraction, photometric at 354 nm
Description: A) DHAB is dissolved to the extent of 2% in dimethylisosorbide. The solution is applied to chicken skin at an application rate of 2.66 μl/cm^2. After an exposure time of 16 hours, the samples are extracted with isopropanol in an ultrasound bath. The extracts are measured photometrically at 354 nm and compared with a 100% value (=application solution without use). The difference in the recovery compared with the 100% value corresponds here to the proportion of active compound bonded to the skin. For DHAB, a bound proportion of 76% is found, while the non-bonding comparative substance DHHB has, as expected, a low value of only 3%.

gelatine plates = assay: Evidence of bonding (skin model), gelatine plates; conditions: 24 hrs at 87% atmospheric humidity, eluted with iPrOH in ultrasound bath
Description: 4% solutions of a mixture of two isomers of 2-(3,4-dihydroxy-5-oxo-2,5-di-hydrofuran-2-yl)-2-hydroxyethyl 2-(4-diethylamino-2-hydroxybenzoyl)benzo-ate, prepared in accordance with Example 1 or 2, abbreviated to DHAB below, in various solvent systems are prepared. 40 µl of each of these are applied to 2.5×7.5 cm gelatine plates and stored at 87% atmospheric humidity for 24 hrs. The plates are then eluted with 50 ml of iPrOH in an ultrasound bath for 5 min. The bonding to the gelatine is carried out by comparison with a corresponding standard solution: […]

pig skin = assay: Evidence of bonding to pig skin; conditions: pig skin 24 h
Description: • 2% solution of DHAB in Arlasolve DMI sample (A) and Pelemol BIP sample (B) • formulation containing 1% of DHAB sample (C) [=54-07-5-A, from Example V] • 2% solution of DHHB in Arlasolve DMI sample (D) and isopropyl myristate sample (E) formulations containing 0.84% of DHHB sample (F) [=54-07-5-B from Example V] and 0.84% of DHHB+0.37% of vitamin C sample (G) [=54-07-5-C from Example V]. • pig skin is cut to 2.5×7.5 cm and placed on Plexiglas specimen slides. Procedure:
50 µl of each of samples (A) to (G) are dripped onto the specimen slides with pig skin, spread using a plastic spatula, and the specimen slides are stored in a desiccator [87% atmospheric humidity through sat. KCl solution] at room temperature for 24 h. The specimen slides are then rinsed with 50 ml of isopropanol into volumetric flasks, treated in an ultrasound bath for 5 min, clear-filtered via syringe filters (cloudiness due to detached skin constituents and measured by UV spectrometer (400-250 nm; UVmax˜355 nm) (residue 1 to 7). The 100% comparative value used are 50 ml isopropanol solutions of in each case 50 µl of samples (A) to (G), which are likewise measured by UV spectrometer.

Human hair samples = assay: Evidence of bonding to hair (SEM); conditions: 0.2% solution in ethanol/water=80/20, 8 h, rinsed; comparison with DHHB
Description: Human hair samples are stirred with a 0.2% ethanolic active-compound solution of DHAB or DHHB (ethanol/water=80/20) for 8 h, subsequently rinsed with ethanol/water=80/20 and sent for SEM measurement (SEM=scanning electron microscope).

prolyl-4-hydroxylase = conditions: cited from earlier work

CCN(CC)c1ccc(C(=O)c2ccccc2C(=O)OC[C@@H](O)[C@H]2OC(=O)C(O)=C2O)c(O)c1 [DHAB, (R)-2-((R)-3,4-dihydroxy-5-oxo-2,5-dihydrofuran-2-yl)-2-hydroxyethyl 2-(4-diethylamino-2-hydroxybenzoyl)benzoate]
bound proportion (proportion of active compound bonded to the skin) (chicken skin): 76%
Non-extractable content and therefore bonded to the skin (gelatine plates; 4% solution in EG/water 94/6 on gelatine plate): 97.0%
Non-extractable content and therefore bonded to the skin (gelatine plates; 4% solution in i-PrOH on gelatine plate): 12.5%
Bonding (non-extractable residue) (pig skin; 1% in W/O 54-07-5-A): 91%
Bonding (non-extractable residue) (pig skin; 2% in Arlasolve DMI): 97%
Bonding (non-extractable residue) (pig skin; 2% in Pelemol BIP): 89%
active-compound adduction onto the hair cuticles (SEM picture) (Human hair samples): clearly increasingly evident

CCCCCCOC(=O)c1ccccc1C(=O)c1ccc(N(CC)CC)cc1O [DHHB, hexyl 2-(4-diethylamino-2-hydroxybenzoyl)benzoate]
bound proportion (proportion of active compound bonded to the skin) (chicken skin): 3%
Bonding (non-extractable residue) (pig skin; 0.84% in W/O 54-07-5-B): 5%
Bonding (non-extractable residue) (pig skin; 2% in Arlasolve DMI): 0%
Bonding (non-extractable residue) (pig skin; 2% in isopropyl myristate): 2%

CC(=O)Oc1ccccc1C(=O)OC[C@H](OC(=O)c1ccccc1OC(C)=O)[C@H]1OC(=O)C(O)=C1O [O^5O^6-bis(2-acetoxybenzoyl) L-ascorbate]
supporting the activity of the enzyme prolyl-4-hydroxylase (prolyl-4-hydroxylase): capable of supporting the activity
affinity to the enzyme (prolyl-4-hydroxylase; compared with the monosubstituted compound): lower affinity

CC(=O)Oc1ccccc1C(=O)OC[C@H](O)[C@H]1OC(=O)C(O)=C1O [O^6-(2-acetoxybenzoyl) L-ascorbate]
supporting the activity of the enzyme prolyl-4-hydroxylase (prolyl-4-hydroxylase): capable of supporting the activity
